Measured values from the supplement of paper PMC11208160.

Test: recombinant UMI read abundance after kanamycin selection (control-corrected) (log10(CPM+1)); higher = more efficient recombination; extreme values may be limits of the assay; sequences stand for … in AGTGCAGAGAAAATCGGCCAGTTTTCTCTGCCTGCAGTCCGCATGCCGTGGGACCCCTTGGGTTCTAACCTGTTGCCTAGATTTATGCAGCGGACTGCCTTTCTCCCAAAGTGATAAACCGG…AGGTTGGTTTCACT; site = the 11-nt donor
Summary of the method: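 Values, expressed as log10(CPM+1), derive from recombinant UMI counts converted to CPM, averaged across replicates and scaled by control-derived factors. Plating was with IPTG (0.07 mM) plus kanamycin or unselected, two replicates each. The screen pooled donor and donor-binding-loop pairs for the IS621 bridge recombinase in Escherichia coli.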
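Further: IS621 bridge recombinase in Escherichia coli cells against a fixed T5 target plasmid.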

First: CCCAGATCATGGACCGGTTTTCCCGGTAATCCGTATTTGGA (site CCCAGATCTTC)
Second: CCCAGGACATGGACCGGTTTTCCCGGTAATCCGTATTTGCG (site CCCAGGACTCG)
The “recombinant UMI read abundance (log10)” value of the first is lower: 0.0263 for the first, 0.893 for the second.

Going from “CCCAGGGCATGGACCGGTTTTCCCGGTAATCCGTATTTGTG (site CCCAGGGCTCA)” to “CCCATATCATGGACCGGTTTTCCCGGTAATCCGTATTTGCC (site CCCATATCTGA)”, the “recombinant UMI read abundance (log10)” value falls from 0.475 to 0.

Going from “CCCATATCATGGACCGGTTTTCCCGGTAATCCGTATTTGCC (site CCCATATCTGC)” to “CCCATATCATGGACCGGTTTTCCCGGTAATCCGTATTTGCC (site CCCATATCTGG)”, the “recombinant UMI read abundance (log10)” value rises from 0 to 0.328.

First: CCCATATCATGGACCGGTTTTCCCGGTAATCCGTATTTGCC (site CCCATATCTGT)
Second: CCCATATCATGGACCGGTTTTCCCGGTAATCCGTATTTGTG (site CCCATATCTAA)
The “recombinant UMI read abundance (log10)” value of the first is higher: 0.454 for the first, 0.00783 for the second.

Compared with “CCCATATCATGGACCGGTTTTCCCGGTAATCCGTATTTGTG (site CCCATATCTCA)”, “CCCATATCATGGACCGGTTTTCCCGGTAATCCGTATTTGTG (site CCCATATCTGA)” is lower in “recombinant UMI read abundance (log10)” value: 0.356 for the first, 0 for the second.

“CCCATATCATGGACCGGTTTTCCCGGTAATCCGTATTTGTG (site CCCATATCTTA)” and “CCCATGTCATGGACCGGTTTTCCCGGTAATCCGTATTTGTC (site CCCATATCTGA)” are within 0.2 log units of each other in “recombinant UMI read abundance (log10)” value: 0.0103 for the first, 0 for the second.

First: CCCATGTCATGGACCGGTTTTCCCGGTAATCCGTATTTGTC (site CCCATCTCTGA)
Second: CCCATGTCATGGACCGGTTTTCCCGGTAATCCGTATTTGTC (site CCCATGTCTGA)
The “recombinant UMI read abundance (log10)” value of the first is lower: 0 for the first, 1.64 for the second.

“CCCATGTCATGGACCGGTTTTCCCGGTAATCCGTATTTGTC (site CCCATTTCTGA)” and “CCCATTTCATGGACCGGTTTTCCCGGTAATCCGTATTTGTC (site CCCATATCTGA)” are the same in “recombinant UMI read abundance (log10)” value: 0 for the first, 0 for the second.

“CCCATTTCATGGACCGGTTTTCCCGGTAATCCGTATTTGTC (site CCCATCTCTGA)” and “CCCATTTCATGGACCGGTTTTCCCGGTAATCCGTATTTGTC (site CCCATGTCTGA)” are the same in “recombinant UMI read abundance (log10)” value: 0 for the first, 0 for the second.

Going from “CCCATTTCATGGACCGGTTTTCCCGGTAATCCGTATTTGTC (site CCCATTTCTGA)” to “CCCCAATCATGGACCGGTTTTCCCGGTAATCCGTATTTGTG (site CCCCAATCTCA)”, the “recombinant UMI read abundance (log10)” value rises from 0 to 0.678.

Compared with “CCCCACACATGGACCGGTTTTCCCGGTAATCCGTATTTGAA (site CCCCACACTTA)”, “CCCCACACATGGACCGGTTTTCCCGGTAATCCGTATTTGAA (site CCCCACACTTC)” is higher in “recombinant UMI read abundance (log10)” value: 0.0109 for the first, 0.33 for the second.

Going from “CCCCACACATGGACCGGTTTTCCCGGTAATCCGTATTTGAA (site CCCCACACTTG)” to “CCCCACACATGGACCGGTTTTCCCGGTAATCCGTATTTGAA (site CCCCACACTTT)”, the “recombinant UMI read abundance (log10)” value rises from 0 to 0.557.

“CCCCACACATGGACCGGTTTTCCCGGTAATCCGTATTTGTA (site ACCCACACTTA)” and “CCCCACACATGGACCGGTTTTCCCGGTAATCCGTATTTGTA (site CACCACACTTA)” are within 0.2 log units of each other in “recombinant UMI read abundance (log10)” value: 0.0144 for the first, 0.0132 for the second.

“CCCCACACATGGACCGGTTTTCCCGGTAATCCGTATTTGTA (site CCACACACTTA)” and “CCCCACACATGGACCGGTTTTCCCGGTAATCCGTATTTGTA (site CCCAACACTTA)” are within 0.2 log units of each other in “recombinant UMI read abundance (log10)” value: 0.0146 for the first, 0 for the second.

“CCCCACACATGGACCGGTTTTCCCGGTAATCCGTATTTGTA (site CCCCAAACTTA)” and “CCCCACACATGGACCGGTTTTCCCGGTAATCCGTATTTGTA (site CCCCACACTAA)” are within 0.2 log units of each other in “recombinant UMI read abundance (log10)” value: 0 for the first, 0.0177 for the second.

“CCCCACACATGGACCGGTTTTCCCGGTAATCCGTATTTGTA (site CCCCACACTCA)” and “CCCCACACATGGACCGGTTTTCCCGGTAATCCGTATTTGTA (site CCCCACACTGA)” are within 0.2 log units of each other in “recombinant UMI read abundance (log10)” value: 0.0202 for the first, 0 for the second.

Compared with “CCCCACACATGGACCGGTTTTCCCGGTAATCCGTATTTGTA (site CCCCACACTTA)”, “CCCCACACATGGACCGGTTTTCCCGGTAATCCGTATTTGTA (site CCCCACACTTC)” is lower in “recombinant UMI read abundance (log10)” value: 1.14 for the first, 0.0125 for the second.

Compared with “CCCCACACATGGACCGGTTTTCCCGGTAATCCGTATTTGTA (site CCCCACACTTG)”, “CCCCACACATGGACCGGTTTTCCCGGTAATCCGTATTTGTA (site CCCCACACTTT)” is lower in “recombinant UMI read abundance (log10)” value: 0.586 for the first, 0.00983 for the second.

“CCCCACACATGGACCGGTTTTCCCGGTAATCCGTATTTGTA (site CCCCACCCTTA)” and “CCCCACACATGGACCGGTTTTCCCGGTAATCCGTATTTGTA (site CCCCACGCTTA)” are within 0.2 log units of each other in “recombinant UMI read abundance (log10)” value: 0.00838 for the first, 0.0198 for the second.

Going from “CCCCACACATGGACCGGTTTTCCCGGTAATCCGTATTTGTA (site CCCCACTCTTA)” to “CCCCACACATGGACCGGTTTTCCCGGTAATCCGTATTTGTA (site CCCCAGACTTA)”, the “recombinant UMI read abundance (log10)” value falls from 0.273 to 0.0244.

“CCCCACACATGGACCGGTTTTCCCGGTAATCCGTATTTGTA (site CCCCATACTTA)” and “CCCCACACATGGACCGGTTTTCCCGGTAATCCGTATTTGTA (site CCCCCCACTTA)” are within 0.2 log units of each other in “recombinant UMI read abundance (log10)” value: 0.0127 for the first, 0.0246 for the second.

“CCCCACACATGGACCGGTTTTCCCGGTAATCCGTATTTGTA (site CCCCGCACTTA)” and “CCCCACACATGGACCGGTTTTCCCGGTAATCCGTATTTGTA (site CCCCTCACTTA)” are within 0.2 log units of each other in “recombinant UMI read abundance (log10)” value: 0.0118 for the first, 0.0137 for the second.

“CCCCACACATGGACCGGTTTTCCCGGTAATCCGTATTTGTA (site CCCGACACTTA)” and “CCCCACACATGGACCGGTTTTCCCGGTAATCCGTATTTGTA (site CCCTACACTTA)” are within 0.2 log units of each other in “recombinant UMI read abundance (log10)” value: 0.0189 for the first, 0.0176 for the second.

“CCCCACACATGGACCGGTTTTCCCGGTAATCCGTATTTGTA (site CCGCACACTTA)” and “CCCCACACATGGACCGGTTTTCCCGGTAATCCGTATTTGTA (site CCTCACACTTA)” are within 0.2 log units of each other in “recombinant UMI read abundance (log10)” value: 0.021 for the first, 0.0102 for the second.

“CCCCACACATGGACCGGTTTTCCCGGTAATCCGTATTTGTA (site CGCCACACTTA)” and “CCCCACACATGGACCGGTTTTCCCGGTAATCCGTATTTGTA (site CTCCACACTTA)” are within 0.2 log units of each other in “recombinant UMI read abundance (log10)” value: 0.016 for the first, 0.113 for the second.

“CCCCACACATGGACCGGTTTTCCCGGTAATCCGTATTTGTA (site GCCCACACTTA)” and “CCCCACACATGGACCGGTTTTCCCGGTAATCCGTATTTGTA (site TCCCACACTTA)” are within 0.2 log units of each other in “recombinant UMI read abundance (log10)” value: 0.00479 for the first, 0.0139 for the second.

First: CCCCAGACATGGACCGGTTTTCCCGGTAATCCGTATTTGTA (site CCCCAAACTTA)
Second: CCCCAGACATGGACCGGTTTTCCCGGTAATCCGTATTTGTA (site CCCCACACTTA)
The “recombinant UMI read abundance (log10)” value of the first is higher: 0.459 for the first, 0.0077 for the second.

First: CCCCAGACATGGACCGGTTTTCCCGGTAATCCGTATTTGTA (site CCCCAGACTTA)
Second: CCCCAGACATGGACCGGTTTTCCCGGTAATCCGTATTTGTA (site CCCCATACTTA)
The “recombinant UMI read abundance (log10)” value of the first is higher: 0.691 for the first, 0.00999 for the second.

First: CCCCCCACATGGACCGGTTTTCCCGGTAATCCGTATTTGTA (site CCCCACACTTA)
Second: CCCCCCACATGGACCGGTTTTCCCGGTAATCCGTATTTGTA (site CCCCCCACTTA)
The “recombinant UMI read abundance (log10)” value of the first is lower: 0.00745 for the first, 0.82 for the second.

“CCCCCCACATGGACCGGTTTTCCCGGTAATCCGTATTTGTA (site CCCCGCACTTA)” and “CCCCCCACATGGACCGGTTTTCCCGGTAATCCGTATTTGTA (site CCCCTCACTTA)” are within 0.2 log units of each other in “recombinant UMI read abundance (log10)” value: 0.0126 for the first, 0.00445 for the second.

Compared with “CCCCGCACATGGACCGGTTTTCCCGGTAATCCGTATTTGTA (site CCCCACACTTA)”, “CCCCGCACATGGACCGGTTTTCCCGGTAATCCGTATTTGTA (site CCCCCCACTTA)” is lower in “recombinant UMI read abundance (log10)” value: 0.48 for the first, 0.00659 for the second.

First: CCCCGCACATGGACCGGTTTTCCCGGTAATCCGTATTTGTA (site CCCCGCACTTA)
Second: CCCCGCACATGGACCGGTTTTCCCGGTAATCCGTATTTGTA (site CCCCTCACTTA)
The “recombinant UMI read abundance (log10)” value of the first is higher: 1.16 for the first, 0.00635 for the second.

First: CCCCGCCCATGGACCGGTTTTCCCGGTAATCCGTATTTGTC (site CCCCGCCCTGA)
Second: CCCCGTACATGGACCGGTTTTCCCGGTAATCCGTATTTGAT (site CCCCGTACTAT)
The “recombinant UMI read abundance (log10)” value of the first is lower: 0 for the first, 1.45 for the second.

Compared with “CCCCGTACATGGACCGGTTTTCCCGGTAATCCGTATTTGCT (site CACCGTACTAG)”, “CCCCGTACATGGACCGGTTTTCCCGGTAATCCGTATTTGCT (site CCCCGTACTAG)” is higher in “recombinant UMI read abundance (log10)” value: 0.00449 for the first, 1.56 for the second.

Going from “CCCCGTACATGGACCGGTTTTCCCGGTAATCCGTATTTGCT (site CGCCGTACTAG)” to “CCCCGTACATGGACCGGTTTTCCCGGTAATCCGTATTTGCT (site CTCCGTACTAG)”, the “recombinant UMI read abundance (log10)” value rises from 0 to 0.542.

First: CCCCTCACATGGACCGGTTTTCCCGGTAATCCGTATTTGTA (site CCCCACACTTA)
Second: CCCCTCACATGGACCGGTTTTCCCGGTAATCCGTATTTGTA (site CCCCCCACTTA)
The “recombinant UMI read abundance (log10)” value of the first is lower: 0.0243 for the first, 0.274 for the second.

Compared with “CCCCTCACATGGACCGGTTTTCCCGGTAATCCGTATTTGTA (site CCCCGCACTTA)”, “CCCCTCACATGGACCGGTTTTCCCGGTAATCCGTATTTGTA (site CCCCTCACTTA)” is higher in “recombinant UMI read abundance (log10)” value: 0.0202 for the first, 1.15 for the second.

With “CCCCTCGCATGGACCGGTTTTCCCGGTAATCCGTATTTGAA (site CCCCTCGCTTT)” the “recombinant UMI read abundance (log10)” value was 0.801.
